Assay results taken from ChEMBL document CHEMBL1201862, “PubChem BioAssay data set” (2004).
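Growth conditions: 96-well plates. Treatment: test compound, 48 hours, 5 concentrations. Analysis: linear interpolation between bracketing concentrations; unreached endpoints set to highest concentration. Here, GI50 denotes the concentration required for 50% inhibition of growth.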 Activity calls are given as the source filed them. Rule as the data show it: active = GI50 up to about 1.1 µM and inactive = higher.

Columns and labels:
Experiment in all cases: DTP human tumour cell line panel, 48 h
[1] = system: SK-MEL-28
[2] = system: A498
[3] = system: EKVX
[4] = system: PC-3
[5] = system: UACC-257
[6] = system: SK-OV-3
[7] = system: SNB-75
[8] = system: NCI/ADR-RES
[9] = system: SF-268
[10] = system: HOP-92
[11] = system: DU-145
[12] = system: HCT-15
[13] = system: NCI-H522
[14] = system: SK-MEL-2
[15] = system: HCC 2998
[16] = system: UO-31
[17] = system: TK-10
[18] = system: K562
[19] = system: SK-MEL-5
[20] = system: HT-29
[21] = system: OVCAR-5
[22] = system: SF-295
[23] = system: CAKI-1
[24] = system: SN12C
[25] = system: Malme-3M
[26] = system: MOLT-4
[27] = system: SW-620
[28] = system: SNB-19
[29] = system: SF-539
[30] = system: NCI-H23
[31] = system: T47D
[32] = system: 786-0
[33] = system: M14
[34] = system: LOX IMVI
[35] = system: CCRF-CEM
[36] = system: COLO 205
[37] = system: MDA-N
[38] = system: IGROV-1
[39] = system: NCI-H226
[40] = system: SR
[41] = system: KM12
[42] = system: RXF 393
[43] = system: MDA-MB-231
[44] = system: HCT-116
[45] = system: HL-60
[46] = system: OVCAR-4
[47] = system: A549
[48] = system: MCF7
[49] = system: OVCAR-8
[50] = system: U-251
[51] = system: OVCAR-3
[52] = system: HOP-62
[53] = system: MDA-MB-435
[54] = system: UACC-62
[55] = system: ACHN
[56] = system: Hs-578T
[57] = system: RPMI-8226
[58] = system: NCI-H460

CCOC(=O)c1c(-c2ccc(OC)cc2)c(C#N)c(=S)n(C2OC(CO)C(O)C(O)C2O)c1C (stereo not given)
GI50 [1]: > 100 µM (inactive)
GI50 [2]: > 100 µM (inactive)
GI50 [3]: > 100 µM (inactive)
GI50 [4]: > 100 µM (inactive)
GI50 [5]: > 100 µM (inactive)
GI50 [6]: > 100 µM (inactive)
GI50 [7]: > 100 µM (inactive)
GI50 [8]: > 100 µM (inactive)
GI50 [9]: > 100 µM (inactive)
GI50 [10]: > 100 µM (inactive)
GI50 [11]: > 100 µM (inactive)
GI50 [12]: > 100 µM
GI50 [13]: > 100 µM (inactive)
GI50 [14]: > 100 µM (inactive)
GI50 [15]: > 100 µM (inactive)
GI50 [16]: > 100 µM (inactive)
GI50 [17]: > 100 µM (inactive)
GI50 [18]: > 100 µM (inactive)
GI50 [19]: > 100 µM (inactive)
GI50 [20]: > 100 µM (inactive)
GI50 [21]: > 100 µM (inactive)
GI50 [22]: > 100 µM (inactive)
GI50 [23]: 87.7 µM (inactive)
GI50 [24]: > 100 µM (inactive)
GI50 [25]: > 100 µM (inactive)
GI50 [26]: > 100 µM (inactive)
GI50 [27]: > 100 µM (inactive)
GI50 [28]: > 100 µM (inactive)
GI50 [29]: > 100 µM (inactive)
GI50 [30]: > 100 µM (inactive)
GI50 [31]: > 100 µM (inactive)
GI50 [32]: > 100 µM (inactive)
GI50 [33]: > 100 µM (inactive)
GI50 [34]: > 100 µM (inactive)
GI50 [35]: > 100 µM (inactive)
GI50 [36]: > 100 µM (inactive)
GI50 [37]: > 100 µM (inactive)
GI50 [38]: > 100 µM (inactive)
GI50 [39]: > 100 µM (inactive)
GI50 [40]: > 100 µM (inactive)
GI50 [41]: > 100 µM (inactive)
GI50 [42]: > 100 µM (inactive)
GI50 [43]: > 100 µM (inactive)
GI50 [44]: > 100 µM (inactive)
GI50 [45]: > 100 µM (inactive)
GI50 [46]: > 100 µM (inactive)
GI50 [47]: > 100 µM (inactive)
GI50 [48]: > 100 µM (inactive)
GI50 [49]: > 100 µM (inactive)
GI50 [50]: > 100 µM (inactive)
GI50 [51]: > 100 µM (inactive)
GI50 [52]: > 100 µM (inactive)
GI50 [53]: > 100 µM (inactive)

CSc1nc2c(N)ncnc2n1C
GI50 [1]: > 100 µM (inactive)
GI50 [2]: > 100 µM (inactive)
GI50 [3]: > 100 µM (inactive)
GI50 [4]: > 100 µM (inactive)
GI50 [5]: > 100 µM (inactive)
GI50 [6]: > 100 µM (inactive)
GI50 [7]: 82.8 µM (inactive)
GI50 [8]: > 100 µM (inactive)
GI50 [9]: > 100 µM (inactive)
GI50 [11]: > 100 µM (inactive)
GI50 [54]: > 100 µM (inactive)
GI50 [12]: > 100 µM
GI50 [13]: > 100 µM (inactive)
GI50 [14]: > 100 µM (inactive)
GI50 [15]: > 100 µM (inactive)
GI50 [16]: > 100 µM (inactive)
GI50 [17]: > 100 µM (inactive)
GI50 [18]: > 100 µM (inactive)
GI50 [55]: > 100 µM (inactive)
GI50 [19]: > 100 µM (inactive)
GI50 [20]: > 100 µM (inactive)
GI50 [21]: > 100 µM (inactive)
GI50 [22]: > 100 µM (inactive)
GI50 [23]: > 100 µM (inactive)
GI50 [24]: > 100 µM (inactive)
GI50 [25]: > 100 µM (inactive)
GI50 [26]: > 100 µM (inactive)
GI50 [27]: > 100 µM (inactive)
GI50 [28]: > 100 µM (inactive)
GI50 [29]: > 100 µM (inactive)
GI50 [31]: > 100 µM (inactive)
GI50 [32]: > 100 µM (inactive)
GI50 [33]: > 100 µM (inactive)
GI50 [34]: > 100 µM (inactive)
GI50 [35]: > 100 µM (inactive)
GI50 [36]: > 100 µM (inactive)
GI50 [37]: > 100 µM (inactive)
GI50 [38]: > 100 µM (inactive)
GI50 [39]: > 100 µM (inactive)
GI50 [56]: > 100 µM (inactive)
GI50 [41]: > 100 µM (inactive)
GI50 [42]: > 100 µM (inactive)
GI50 [57]: > 100 µM (inactive)
GI50 [43]: > 100 µM (inactive)
GI50 [44]: > 100 µM (inactive)
GI50 [58]: > 100 µM (inactive)
GI50 [46]: > 100 µM (inactive)
GI50 [47]: > 100 µM (inactive)
GI50 [48]: > 100 µM (inactive)
GI50 [49]: > 100 µM (inactive)
GI50 [50]: > 100 µM (inactive)
GI50 [51]: > 100 µM (inactive)
GI50 [52]: > 100 µM (inactive)
GI50 [53]: > 100 µM (inactive)

O=C(/C=C/c1ccc(Cl)cc1)Oc1ccc(/C=C2\CCCCC2=O)cc1
GI50 [1]: > 100 µM (inactive)
GI50 [2]: > 100 µM (inactive)
GI50 [3]: > 100 µM (inactive)
GI50 [4]: > 100 µM (inactive)
GI50 [5]: > 100 µM (inactive)
GI50 [7]: > 100 µM (inactive)
GI50 [9]: 69.7 µM (inactive)
GI50 [10]: > 100 µM (inactive)
GI50 [11]: > 100 µM (inactive)
GI50 [54]: > 100 µM (inactive)
GI50 [12]: > 100 µM
GI50 [13]: 50.8 µM (inactive)
GI50 [14]: > 100 µM (inactive)
GI50 [15]: > 100 µM (inactive)
GI50 [16]: > 100 µM (inactive)
GI50 [17]: > 100 µM (inactive)
GI50 [55]: > 100 µM (inactive)
GI50 [19]: > 100 µM (inactive)
GI50 [20]: 23 µM (inactive)
GI50 [21]: > 100 µM (inactive)
GI50 [22]: > 100 µM (inactive)
GI50 [23]: > 100 µM (inactive)
GI50 [24]: > 100 µM (inactive)
GI50 [25]: > 100 µM (inactive)
GI50 [26]: 28.8 µM (inactive)
GI50 [27]: > 100 µM (inactive)
GI50 [28]: > 10 µM (inactive)
GI50 [29]: > 100 µM (inactive)
GI50 [30]: > 100 µM (inactive)
GI50 [31]: > 100 µM (inactive)
GI50 [32]: > 100 µM (inactive)
GI50 [33]: > 100 µM (inactive)
GI50 [34]: > 100 µM (inactive)
GI50 [35]: 55.5 µM (inactive)
GI50 [36]: > 100 µM (inactive)
GI50 [37]: > 100 µM (inactive)
GI50 [38]: > 100 µM (inactive)
GI50 [56]: > 100 µM (inactive)
GI50 [40]: > 100 µM (inactive)
GI50 [41]: > 100 µM (inactive)
GI50 [57]: > 100 µM (inactive)
GI50 [43]: > 100 µM (inactive)
GI50 [44]: > 100 µM (inactive)
GI50 [58]: > 100 µM (inactive)
GI50 [45]: 50.7 µM (inactive)
GI50 [46]: > 100 µM (inactive)
GI50 [47]: > 100 µM (inactive)
GI50 [48]: > 100 µM (inactive)
GI50 [49]: > 100 µM (inactive)
GI50 [50]: > 100 µM (inactive)
GI50 [51]: > 100 µM (inactive)
GI50 [52]: > 100 µM (inactive)
GI50 [53]: > 100 µM (inactive)
